What all share (assay): KinomeScan kinase profiling
Assay type in all cases: binding

For one experiment, the target named is T1, PCTK3 (Homo sapiens, UniProt Q07002).
T1 construct: host or cells: E. coli host derived from the BL21 strain, infected with T7 phage
The method in brief: (§1)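 Kinases were expressed as T7 phage fusions in a BL21-derived E. coli host and the cleared lysates were used. Ligand beads were blocked with biotin and buffer (1% BSA, 0.05% Tween 20, 1 mM DTT). Compounds came from 40× DMSO stocks, and phage in the eluates was titred by qPCR.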

The next experiment deals with T2, MERTK (Homo sapiens, UniProt Q12866).
T2 construct: host or cells: E. coli derived from BL21, infected with T7 phage
T2 sequence (Q12866 21-999): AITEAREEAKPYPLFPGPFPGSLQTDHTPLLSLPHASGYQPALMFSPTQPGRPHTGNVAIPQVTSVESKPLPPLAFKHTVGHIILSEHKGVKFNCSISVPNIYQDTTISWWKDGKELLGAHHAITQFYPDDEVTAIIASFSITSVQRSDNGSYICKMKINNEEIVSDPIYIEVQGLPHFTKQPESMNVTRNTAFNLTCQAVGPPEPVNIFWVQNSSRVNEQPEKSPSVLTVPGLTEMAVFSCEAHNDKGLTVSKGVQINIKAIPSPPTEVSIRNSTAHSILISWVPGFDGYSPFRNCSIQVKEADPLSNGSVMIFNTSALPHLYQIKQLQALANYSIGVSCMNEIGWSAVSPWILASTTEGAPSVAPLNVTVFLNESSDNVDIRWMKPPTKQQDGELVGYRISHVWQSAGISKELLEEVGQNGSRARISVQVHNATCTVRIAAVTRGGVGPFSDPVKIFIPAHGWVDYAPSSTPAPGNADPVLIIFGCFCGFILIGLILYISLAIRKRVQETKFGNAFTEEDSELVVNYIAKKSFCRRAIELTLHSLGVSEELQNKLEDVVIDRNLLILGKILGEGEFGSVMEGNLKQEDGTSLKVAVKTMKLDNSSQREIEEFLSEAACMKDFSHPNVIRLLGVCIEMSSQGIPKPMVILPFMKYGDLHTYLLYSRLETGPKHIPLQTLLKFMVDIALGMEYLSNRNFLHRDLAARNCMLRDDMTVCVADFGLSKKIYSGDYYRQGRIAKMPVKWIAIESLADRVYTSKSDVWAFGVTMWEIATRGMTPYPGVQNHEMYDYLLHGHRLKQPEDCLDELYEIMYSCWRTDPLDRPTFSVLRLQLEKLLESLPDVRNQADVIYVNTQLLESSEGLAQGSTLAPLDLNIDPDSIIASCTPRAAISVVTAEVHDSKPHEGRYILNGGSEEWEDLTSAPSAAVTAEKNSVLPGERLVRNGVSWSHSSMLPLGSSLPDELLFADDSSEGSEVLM
The method in brief: as §1

A further experiment has as its target T3, YSK1 (Homo sapiens, UniProt O00506).
T3 construct: host or cells: E. coli host derived from the BL21 strain, infected with T7 phage
Put shortly:
as §1

Another experiment has as its target T4, HCK (Homo sapiens, UniProt P08631).
T4 construct: host or cells: E. coli host derived from BL21, infected with T7 phage
Put shortly:
as §1

In a further experiment the target is T5, PRKX (Homo sapiens, UniProt P51817).
T5 construct: host or cells: E. coli host derived from BL21, T7 phage lysate
T5 sequence (P51817 whole entry): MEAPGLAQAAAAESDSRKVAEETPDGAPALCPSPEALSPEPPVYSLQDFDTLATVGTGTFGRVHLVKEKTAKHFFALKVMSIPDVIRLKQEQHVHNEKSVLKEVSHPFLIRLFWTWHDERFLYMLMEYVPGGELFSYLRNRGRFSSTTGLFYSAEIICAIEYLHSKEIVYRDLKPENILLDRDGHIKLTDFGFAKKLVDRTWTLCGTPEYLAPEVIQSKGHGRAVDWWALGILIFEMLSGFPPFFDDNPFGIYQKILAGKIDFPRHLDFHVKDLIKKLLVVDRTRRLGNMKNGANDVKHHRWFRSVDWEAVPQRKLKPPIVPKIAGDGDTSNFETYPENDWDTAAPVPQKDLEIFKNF
Put shortly:
as §1

A further experiment has as its target T6, MRCKA (Homo sapiens, UniProt Q5VT25).
T6 construct: host or cells: T7 phage in E. coli host derived from BL21
The method in brief:
as §1

A further experiment concerns the target T7, MKNK2 (Homo sapiens, UniProt Q9HBH9).
T7 construct: host or cells: T7 phage in E. coli host derived from BL21
The method in brief:
as §1

A further experiment has as its target T8, FYN (Homo sapiens, UniProt P06241).
T8 construct: host or cells: E. coli host derived from BL21, infected with T7 phage
The method in brief: as §1

Another experiment concerns the target T9, CSNK1G2 (Homo sapiens, UniProt P78368).
T9 construct: purchased Ambit Biosciences Corp (KinomeScan); host or cells: T7 phage in E. coli host derived from BL21
The method in brief: as §1

Another experiment concerns the target T10, IRAK3 (Homo sapiens, UniProt Q9Y616).
T10 construct: host or cells: T7 phage in E. coli host derived from BL21
The method in brief:
as §1

For another experiment, the target named is T11, LIMK1 (Homo sapiens, UniProt P53667).
T11 construct: host or cells: T7 phage in E. coli host derived from BL21
T11 sequence (P53667 whole entry): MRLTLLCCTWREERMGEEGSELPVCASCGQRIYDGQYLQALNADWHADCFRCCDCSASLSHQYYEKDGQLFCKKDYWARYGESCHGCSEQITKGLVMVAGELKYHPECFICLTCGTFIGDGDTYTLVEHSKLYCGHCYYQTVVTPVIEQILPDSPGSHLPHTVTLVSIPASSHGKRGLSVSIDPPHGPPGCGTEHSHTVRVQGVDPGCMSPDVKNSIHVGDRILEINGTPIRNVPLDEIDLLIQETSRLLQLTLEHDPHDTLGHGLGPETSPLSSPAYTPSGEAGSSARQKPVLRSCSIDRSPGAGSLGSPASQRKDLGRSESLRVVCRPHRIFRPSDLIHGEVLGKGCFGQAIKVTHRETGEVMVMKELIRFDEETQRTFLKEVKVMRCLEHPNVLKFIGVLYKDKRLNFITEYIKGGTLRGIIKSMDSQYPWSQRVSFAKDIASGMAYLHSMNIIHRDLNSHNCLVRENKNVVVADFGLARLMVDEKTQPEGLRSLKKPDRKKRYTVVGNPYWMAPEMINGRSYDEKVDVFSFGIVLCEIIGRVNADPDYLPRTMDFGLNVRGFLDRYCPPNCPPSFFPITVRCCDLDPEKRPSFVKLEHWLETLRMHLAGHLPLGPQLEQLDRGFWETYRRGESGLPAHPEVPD
The method in brief:
as §1

Another experiment concerns the target T12, LKB1 (Homo sapiens, UniProt Q15831).
T12 construct: host or cells: E. coli derived from BL21, infected with T7 phage
Put shortly:
as §1

The next experiment concerns the target T13, EPHB2 (Homo sapiens, UniProt P29323).
T13 construct: host or cells: E. coli host derived from BL21, T7 phage lysate
The method in brief: as §1

The next experiment deals with T14, PAK7 (Homo sapiens, UniProt Q9P286).
T14 construct: host or cells: E. coli host derived from the BL21 strain, infected with T7 phage
Put shortly: as §1

The target in the next experiment is T15, PIP5K1A (Homo sapiens, UniProt Q99755).
T15 construct: purchased Ambit Biosciences Corp (KinomeScan); host or cells: E. coli host derived from BL21, infected with T7 phage
The method in brief: as §1

The target of experiment [1] is T16, RPS6KA5 (Kin.Dom.-1-N-terminal) (Homo sapiens, UniProt O75582).
T16 construct: RPS6KA5 (Kin.Dom.-1-N-terminal); host or cells: E. coli host derived from BL21, T7 phage lysate
T16 sequence (O75582 49-318 limits assumed): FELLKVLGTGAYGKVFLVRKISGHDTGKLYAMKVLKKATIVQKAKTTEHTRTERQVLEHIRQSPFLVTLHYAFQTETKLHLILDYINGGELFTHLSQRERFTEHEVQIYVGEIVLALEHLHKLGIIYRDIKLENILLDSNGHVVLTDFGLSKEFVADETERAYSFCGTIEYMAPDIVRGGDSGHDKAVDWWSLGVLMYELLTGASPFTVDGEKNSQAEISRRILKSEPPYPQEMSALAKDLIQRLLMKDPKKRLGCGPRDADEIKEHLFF
The method in brief:
as §1

Experiment [2] has as its target T17, RPS6KA1 (Kin.Dom.-1-N-terminal) (Homo sapiens, UniProt Q15418).
T17 construct: RPS6KA1 (Kin.Dom.-1-N-terminal); host or cells: E. coli host derived from BL21, T7 phage lysate
The method in brief:
as §1

The next experiment has as its target T18, LATS1 (Homo sapiens, UniProt O95835).
T18 construct: host or cells: T7 phage in E. coli host derived from BL21
Put shortly:
as §1

In experiment [3] the target is T19, EGFR (L747-T751del, Sins) (Homo sapiens, UniProt P00533, DEL747-750/T751S).
T19 construct: host or cells: E. coli host derived from BL21, T7 phage lysate
Put shortly:
as §1

Another experiment deals with T20, LOK (Homo sapiens, UniProt O94804).
T20 construct: host or cells: E. coli derived from BL21, infected with T7 phage
Put shortly:
as §1

Another experiment deals with T21, TRKA (Homo sapiens, UniProt P04629).
T21 construct: purchased Ambit Biosciences Corp (KinomeScan); host or cells: E. coli host derived from the BL21 strain (T7 phage lysate)
Put shortly:
as §1

Another experiment addresses T22, TESK1 (Homo sapiens, UniProt Q15569).
T22 construct: host or cells: E. coli host derived from the BL21 strain, T7 phage lysate
Put shortly: as §1

T13 sequence (P29323 19-1055): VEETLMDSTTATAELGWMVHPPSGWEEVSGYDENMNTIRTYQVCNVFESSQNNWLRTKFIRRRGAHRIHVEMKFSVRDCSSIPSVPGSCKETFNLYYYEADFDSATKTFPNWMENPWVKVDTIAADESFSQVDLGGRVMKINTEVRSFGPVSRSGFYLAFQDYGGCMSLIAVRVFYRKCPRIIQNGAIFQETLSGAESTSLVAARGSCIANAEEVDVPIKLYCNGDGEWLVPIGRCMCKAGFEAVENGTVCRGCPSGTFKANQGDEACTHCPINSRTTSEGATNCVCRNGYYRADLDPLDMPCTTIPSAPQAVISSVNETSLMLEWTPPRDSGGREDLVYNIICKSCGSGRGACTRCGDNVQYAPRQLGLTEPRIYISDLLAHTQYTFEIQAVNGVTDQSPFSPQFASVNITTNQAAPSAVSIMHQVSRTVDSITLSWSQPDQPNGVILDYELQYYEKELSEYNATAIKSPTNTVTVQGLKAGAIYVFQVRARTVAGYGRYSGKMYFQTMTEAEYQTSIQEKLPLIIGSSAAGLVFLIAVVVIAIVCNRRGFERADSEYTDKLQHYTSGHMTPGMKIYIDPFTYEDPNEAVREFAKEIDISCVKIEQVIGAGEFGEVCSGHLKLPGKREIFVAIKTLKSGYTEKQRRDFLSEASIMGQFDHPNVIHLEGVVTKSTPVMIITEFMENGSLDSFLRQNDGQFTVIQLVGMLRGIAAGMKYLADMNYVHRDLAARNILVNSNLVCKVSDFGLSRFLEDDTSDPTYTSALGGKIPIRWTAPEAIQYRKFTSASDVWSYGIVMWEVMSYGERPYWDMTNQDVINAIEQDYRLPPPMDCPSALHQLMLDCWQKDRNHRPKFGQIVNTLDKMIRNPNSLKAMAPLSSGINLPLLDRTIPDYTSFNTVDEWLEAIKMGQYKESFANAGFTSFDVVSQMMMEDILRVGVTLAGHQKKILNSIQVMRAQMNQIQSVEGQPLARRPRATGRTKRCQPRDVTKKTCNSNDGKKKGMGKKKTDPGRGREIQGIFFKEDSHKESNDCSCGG
T22 sequence (Q15569 whole entry): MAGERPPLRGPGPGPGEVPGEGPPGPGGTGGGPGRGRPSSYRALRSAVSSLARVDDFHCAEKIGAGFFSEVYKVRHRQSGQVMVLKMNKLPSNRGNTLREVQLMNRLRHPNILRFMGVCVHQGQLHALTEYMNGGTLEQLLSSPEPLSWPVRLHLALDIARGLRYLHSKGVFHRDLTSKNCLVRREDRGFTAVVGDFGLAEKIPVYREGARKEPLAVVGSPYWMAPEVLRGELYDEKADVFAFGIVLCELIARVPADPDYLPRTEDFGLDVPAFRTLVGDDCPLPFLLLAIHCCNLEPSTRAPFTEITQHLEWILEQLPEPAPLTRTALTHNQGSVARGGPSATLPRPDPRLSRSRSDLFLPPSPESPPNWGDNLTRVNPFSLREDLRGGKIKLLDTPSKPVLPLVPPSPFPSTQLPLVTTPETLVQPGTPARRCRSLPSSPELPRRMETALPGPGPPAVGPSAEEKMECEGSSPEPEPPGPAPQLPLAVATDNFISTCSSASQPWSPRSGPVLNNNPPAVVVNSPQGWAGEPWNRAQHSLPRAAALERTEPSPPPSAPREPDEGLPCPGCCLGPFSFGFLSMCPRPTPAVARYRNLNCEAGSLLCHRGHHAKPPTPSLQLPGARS
T18 sequence (O95835 whole entry): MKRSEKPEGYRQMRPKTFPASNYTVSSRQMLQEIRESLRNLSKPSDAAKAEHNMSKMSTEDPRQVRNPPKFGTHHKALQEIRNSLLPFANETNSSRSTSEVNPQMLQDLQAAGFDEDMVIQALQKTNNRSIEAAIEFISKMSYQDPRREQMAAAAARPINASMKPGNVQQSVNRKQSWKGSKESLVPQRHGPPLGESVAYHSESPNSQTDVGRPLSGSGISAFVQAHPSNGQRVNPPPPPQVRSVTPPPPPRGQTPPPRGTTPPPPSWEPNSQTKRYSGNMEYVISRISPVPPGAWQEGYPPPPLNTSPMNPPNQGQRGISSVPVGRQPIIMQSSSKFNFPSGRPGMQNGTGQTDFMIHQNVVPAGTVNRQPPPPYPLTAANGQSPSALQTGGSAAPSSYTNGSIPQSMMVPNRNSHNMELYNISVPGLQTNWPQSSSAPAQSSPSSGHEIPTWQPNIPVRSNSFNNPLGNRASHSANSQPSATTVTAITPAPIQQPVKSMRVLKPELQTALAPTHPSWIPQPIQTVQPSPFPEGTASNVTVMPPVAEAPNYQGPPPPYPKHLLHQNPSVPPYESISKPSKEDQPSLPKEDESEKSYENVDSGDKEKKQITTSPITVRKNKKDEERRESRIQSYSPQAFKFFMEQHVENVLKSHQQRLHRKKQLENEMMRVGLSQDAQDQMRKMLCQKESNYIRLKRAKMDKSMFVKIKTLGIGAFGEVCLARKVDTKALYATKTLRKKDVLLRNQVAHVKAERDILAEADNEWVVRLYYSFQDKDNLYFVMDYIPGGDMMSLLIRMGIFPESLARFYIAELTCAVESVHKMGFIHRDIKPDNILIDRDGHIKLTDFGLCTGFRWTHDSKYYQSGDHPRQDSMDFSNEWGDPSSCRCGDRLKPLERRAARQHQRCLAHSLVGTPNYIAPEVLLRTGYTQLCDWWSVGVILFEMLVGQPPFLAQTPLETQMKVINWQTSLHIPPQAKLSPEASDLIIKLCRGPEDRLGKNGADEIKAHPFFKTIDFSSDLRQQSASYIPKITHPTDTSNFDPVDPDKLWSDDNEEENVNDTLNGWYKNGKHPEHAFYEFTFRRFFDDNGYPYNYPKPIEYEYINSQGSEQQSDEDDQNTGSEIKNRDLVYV

`C#Cc1cccc(Nc2ncnc3cc(OC)c(OCCCN4CCOCC4)cc23)c1` [NRC-2694, N-(3-ethylnylphenyl)-7-methoxy-6-[3-(4-morpholinyl)propoxy]-4-quinazolinamine]: the “% Ctrl @ 10000 nM” value was found to be 82 % Ctrl on PCTK3; 48 % Ctrl on MERTK; 69 % Ctrl at YSK1; 17 % Ctrl at HCK; 100 % Ctrl on PRKX; 81 % Ctrl on MRCKA. Moreover, the “% Ctrl @ 10000 nM” value at MKNK2 stood at 16 % Ctrl; at FYN, 41 % Ctrl; on CSNK1G2, 76 % Ctrl; on IRAK3, 25 % Ctrl; on LIMK1 it was 62 % Ctrl; at LKB1 it was 69 % Ctrl. Further, the “% Ctrl @ 10000 nM” value is on record as 83 % Ctrl at EPHB2; 63 % Ctrl on PAK7; 61 % Ctrl on PIP5K1A; 85 % Ctrl in [1]; 100 % Ctrl in [2]; 91 % Ctrl at LATS1. Also, the “% Ctrl @ 10000 nM” value was 0 % Ctrl in [3], 0 % Ctrl at LOK, 100 % Ctrl at TRKA and 83 % Ctrl at TESK1.

(Values after patent publication US9050341B2, “Methods of treating drug resistant and other tumors by administering 6,7-dialkoxy quinazoline derivatives” (NATCO PHARMA LIMITED, priority 2009, dated 2015).)
